Data published in PubChem BioAssay (NCI).
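48-hour exposure; five concentrations; linearly interpolated endpoints. TGI is the concentration that stops growth completely.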 Where a SMILES comes first, the peptide text is derived from it. [ ]: non-standard residue; d: D form. The star is where a group is joined. X28 = COC1=CC(=O)N(C(=O)[C@@H](O*)C(C)C)[C@H]1Cc1ccccc1; Bn2Val = CC(C)[C@@H](C(=O)*)N(Cc1ccccc1)Cc1ccccc1; NMeV = CN[C@H](C(=O)O)C(C)C; dNMeA = CN[C@H](C)C(=O)O

Assays:
Test in all cases: NCI anticancer screen, dose series, 48 h
[1] = test system: SK-MEL-28 melanoma
[2] = test system: TK-10 renal
[3] = test system: UACC-62 melanoma
[4] = test system: HOP-92 NSCLC
[5] = test system: KM12 colon
[6] = test system: SN12C renal
[7] = test system: ACHN renal
[8] = test system: A549 NSCLC
[9] = test system: PC-3 prostate
[10] = test system: HOP-62 NSCLC

Structure (SMILES): CC(=O)NNc1nc(C)c(C(/C=C/c2ccc([N+](=O)[O-])cc2)=N/NC(N)=O)s1
- TGI [1]: > 100 µM
- TGI [2]: > 100 µM
- TGI [3]: > 100 µM
- TGI [4]: > 100 µM
- TGI [5]: > 100 µM
- TGI [6]: > 100 µM
- TGI [7]: > 100 µM
- TGI [8]: > 100 µM
- TGI [9]: > 100 µM
- TGI [10]: > 100 µM

Structure (SMILES): NC(=S)Nc1ccc2c(c1)oc1ccccc12
- TGI [1]: > 100 µM
- TGI [2]: > 100 µM
- TGI [3]: > 100 µM
- TGI [4]: > 100 µM
- TGI [5]: > 100 µM
- TGI [6]: > 100 µM
- TGI [7]: > 100 µM
- TGI [8]: > 100 µM
- TGI [9]: > 100 µM
- TGI [10]: > 100 µM

Structure (SMILES): COCCOC(C)C(=O)C(O)S(=O)(=O)O (configuration not stated)
- TGI [1]: > 100 µM
- TGI [2]: > 100 µM
- TGI [3]: > 100 µM
- TGI [4]: > 100 µM
- TGI [5]: > 100 µM
- TGI [6]: > 100 µM
- TGI [7]: > 100 µM
- TGI [8]: > 100 µM
- TGI [9]: > 100 µM
- TGI [10]: > 100 µM

Structure (SMILES): C=CCOC(=O)c1c(C)n([O-])c2cc(Cl)c(Cl)cc2[n+]1=O
- TGI [1]: 30.3 µM
- TGI [2]: 87.2 µM
- TGI [3]: 41.3 µM
- TGI [4]: 53.1 µM
- TGI [5]: 84.7 µM
- TGI [6]: 54.7 µM
- TGI [7]: 50.9 µM
- TGI [8]: 87.7 µM
- TGI [9]: > 100 µM
- TGI [10]: 57.6 µM

Structure (SMILES): O=C(CNc1nccs1)Nn1cnc2ccc(S(=O)(=O)Nc3nccs3)cc2c1=O
- TGI [1]: > 100 µM
- TGI [2]: > 100 µM
- TGI [3]: > 100 µM
- TGI [4]: > 100 µM
- TGI [5]: > 100 µM
- TGI [6]: > 100 µM
- TGI [7]: > 100 µM
- TGI [8]: > 100 µM
- TGI [9]: > 100 µM
- TGI [10]: > 100 µM

Structure (SMILES): C=CC(C)(C)C1(CC(OC)OC)C(=O)N(C)c2ccccc21 (configuration not stated)
- TGI [1]: > 25 µM
- TGI [3]: > 25 µM
- TGI [4]: > 25 µM
- TGI [5]: > 25 µM
- TGI [6]: > 25 µM
- TGI [7]: > 25 µM
- TGI [8]: > 25 µM
- TGI [9]: > 25 µM
- TGI [10]: > 25 µM

Structure (SMILES): CCCCC(=C=C(C)CO)C1CCCN1C(=O)OC(C)(C)C (configuration not stated)
- TGI [1]: 36 µM
- TGI [2]: 48.1 µM
- TGI [3]: 26.9 µM
- TGI [4]: 25.6 µM
- TGI [5]: 34.8 µM
- TGI [6]: 31.5 µM
- TGI [7]: 68.2 µM
- TGI [8]: 48.1 µM
- TGI [9]: 38.1 µM
- TGI [10]: 39.1 µM

Structure (SMILES): COC1=CC(=O)N(C(=O)[C@@H](OC(=O)[C@@H](C)N(C)C(=O)[C@@H]2CCCN2C(=O)[C@H](C(C)C)N(C)C(=O)[C@@H](NC(=O)[C@H](C(C)C)N(Cc2ccccc2)Cc2ccccc2)C(C)C)C(C)C)[C@H]1Cc1ccccc1 (Bn2Val-V[NMeV]P[dNMeA]-X28)
- TGI [1]: > 100 µM
- TGI [2]: > 100 µM
- TGI [3]: > 100 µM
- TGI [4]: > 100 µM
- TGI [5]: > 100 µM
- TGI [6]: > 100 µM
- TGI [7]: > 100 µM
- TGI [8]: > 100 µM
- TGI [9]: > 100 µM
- TGI [10]: > 100 µM

Structure (SMILES): CCCCOc1c(C(=O)O)cc(Br)cc1C(=O)O
- TGI [1]: > 100 µM
- TGI [2]: > 100 µM
- TGI [4]: > 100 µM
- TGI [5]: > 100 µM
- TGI [6]: > 100 µM
- TGI [7]: > 100 µM
- TGI [8]: > 100 µM
- TGI [9]: > 100 µM
- TGI [10]: > 100 µM

Structure (SMILES): CC1(C)Oc2ccc3c(=O)cc(-c4cccs4)oc3c2C1C(=O)O (configuration not stated)
- TGI [2]: > 100 µM
- TGI [6]: > 100 µM
- TGI [8]: > 100 µM
- TGI [9]: > 100 µM
- TGI [10]: > 100 µM

Structure (SMILES): O=C(O)CN1CCCC(Cc2c[nH]c3ccccc23)C1 (configuration not stated)
- TGI [1]: > 100 µM
- TGI [2]: > 100 µM
- TGI [3]: > 100 µM
- TGI [4]: > 100 µM
- TGI [5]: > 100 µM
- TGI [7]: > 100 µM
- TGI [8]: > 100 µM
- TGI [9]: > 100 µM
- TGI [10]: > 100 µM
